Source: ChEMBL document CHEMBL4706479, “Novel Aryloxyethyl Derivatives of 1-(1-Benzoylpiperidin-4-yl)methanamine as the Extracellular Regulated Kinases 1/2 (ERK1/2) Phosphorylation-Preferring Serotonin 5-HT Receptor-Biased Agonists with Robust Antidepressant-like Activity” (J Med Chem, 2019)
Values after ≈ are worked out from the molar mass of the structure shown. Active and inactive are the calls of the source. No cut-off for these calls is given here.

What was measured:
hERG (KCNH2) [1] = molecular target: T1, hERG (KCNH2) (Homo sapiens, UniProt Q12809); test: Displacement of [3H]-dofetilide from human ERG (unknown origin) at 10 uM relative to control; details: probe [3H]-dofetilide
T1 sequence (Q12809 whole entry): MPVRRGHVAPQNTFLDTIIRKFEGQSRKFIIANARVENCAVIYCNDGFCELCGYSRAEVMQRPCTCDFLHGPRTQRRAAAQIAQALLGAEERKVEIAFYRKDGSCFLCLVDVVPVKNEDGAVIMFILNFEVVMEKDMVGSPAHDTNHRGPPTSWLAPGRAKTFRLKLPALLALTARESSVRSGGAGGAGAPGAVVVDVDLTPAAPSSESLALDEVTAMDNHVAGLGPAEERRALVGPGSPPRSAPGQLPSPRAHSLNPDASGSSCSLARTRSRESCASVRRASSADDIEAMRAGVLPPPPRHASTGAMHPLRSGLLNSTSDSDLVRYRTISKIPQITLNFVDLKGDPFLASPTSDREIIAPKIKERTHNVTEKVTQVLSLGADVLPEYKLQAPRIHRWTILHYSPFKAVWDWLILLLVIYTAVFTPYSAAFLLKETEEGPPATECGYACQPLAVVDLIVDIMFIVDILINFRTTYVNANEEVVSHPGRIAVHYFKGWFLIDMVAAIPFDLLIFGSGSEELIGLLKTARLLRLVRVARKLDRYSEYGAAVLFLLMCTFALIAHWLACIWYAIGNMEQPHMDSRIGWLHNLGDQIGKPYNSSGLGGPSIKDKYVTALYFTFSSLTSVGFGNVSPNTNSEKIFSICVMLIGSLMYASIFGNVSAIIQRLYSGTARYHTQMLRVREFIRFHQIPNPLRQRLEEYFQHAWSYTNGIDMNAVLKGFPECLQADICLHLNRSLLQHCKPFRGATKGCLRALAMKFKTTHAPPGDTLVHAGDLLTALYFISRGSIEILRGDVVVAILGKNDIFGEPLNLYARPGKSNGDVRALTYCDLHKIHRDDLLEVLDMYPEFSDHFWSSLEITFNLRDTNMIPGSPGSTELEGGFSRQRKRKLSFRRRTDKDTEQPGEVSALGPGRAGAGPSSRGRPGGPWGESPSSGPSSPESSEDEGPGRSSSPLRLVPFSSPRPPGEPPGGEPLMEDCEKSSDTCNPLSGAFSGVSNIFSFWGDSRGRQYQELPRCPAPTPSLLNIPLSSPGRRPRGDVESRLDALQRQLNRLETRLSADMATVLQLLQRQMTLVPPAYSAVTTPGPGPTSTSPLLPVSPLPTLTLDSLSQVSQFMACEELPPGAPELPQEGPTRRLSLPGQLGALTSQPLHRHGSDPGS

Rattus norvegicus [2] = test: Antidepressant-like activity in Wistar rat assessed as reduction in immobility time at 0.04 to […], po administered 60 mins prior to testing and measured for 5 mins test period in presence of 5-HT1A antagonist WAY100635 by Porsolt-forced swim test; type: functional, organism-based; details: dose lower 0.04 mg/kg, dose upper […], time 65.0 min
[3] = molecular target: 5-hydroxytryptamine receptor 1B (Homo sapiens) (UniProt P28222); test: Inhibition of 5-HT1B (unknown origin) at 10 uM relative to control
[4] = Aqueous solubility of compound in simulated intestinal fluid at 200 uM; type: physicochemical
[5] = molecular target: Alpha-2A adrenergic receptor (Homo sapiens) (UniProt P08913); test: Inhibition of adrenergic alpha-2A receptor (unknown origin) at 1 uM relative to control
Chain of Alpha-2A adrenergic receptor (Homo sapiens) (P08913 whole entry): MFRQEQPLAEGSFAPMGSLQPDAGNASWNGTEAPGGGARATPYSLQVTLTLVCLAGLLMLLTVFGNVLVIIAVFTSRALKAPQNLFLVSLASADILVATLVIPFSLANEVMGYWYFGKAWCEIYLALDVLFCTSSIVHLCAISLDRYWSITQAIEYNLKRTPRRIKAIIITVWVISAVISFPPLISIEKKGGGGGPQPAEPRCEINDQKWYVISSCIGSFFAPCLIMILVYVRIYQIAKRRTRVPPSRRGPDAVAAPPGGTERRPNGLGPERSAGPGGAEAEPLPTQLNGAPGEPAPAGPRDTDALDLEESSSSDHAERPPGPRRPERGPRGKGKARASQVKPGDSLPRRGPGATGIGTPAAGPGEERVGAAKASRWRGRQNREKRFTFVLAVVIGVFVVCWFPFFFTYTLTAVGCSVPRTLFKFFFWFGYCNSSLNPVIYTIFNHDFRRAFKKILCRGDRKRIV

[6] = molecular target: Histamine H1 receptor (Homo sapiens) (UniProt P35367); test: Inhibition of histamine H1 receptor (unknown origin) at 10 uM relative to control
Chain of Histamine H1 receptor (Homo sapiens) (P35367 whole entry): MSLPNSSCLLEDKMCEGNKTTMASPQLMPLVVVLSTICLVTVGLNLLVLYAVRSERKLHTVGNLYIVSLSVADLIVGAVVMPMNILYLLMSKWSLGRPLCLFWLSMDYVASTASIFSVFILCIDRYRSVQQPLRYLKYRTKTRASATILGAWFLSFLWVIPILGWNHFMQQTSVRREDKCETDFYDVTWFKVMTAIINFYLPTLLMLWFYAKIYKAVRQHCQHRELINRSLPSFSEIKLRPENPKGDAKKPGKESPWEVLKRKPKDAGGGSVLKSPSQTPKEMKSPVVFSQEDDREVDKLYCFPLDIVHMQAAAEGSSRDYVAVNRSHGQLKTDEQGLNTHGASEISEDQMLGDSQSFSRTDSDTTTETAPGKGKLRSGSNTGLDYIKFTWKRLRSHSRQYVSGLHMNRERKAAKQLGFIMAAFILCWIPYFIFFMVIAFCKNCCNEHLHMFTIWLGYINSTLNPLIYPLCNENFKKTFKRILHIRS

[7] = molecular target: Histamine H1 receptor (Homo sapiens) (UniProt P35367); test: Displacement of [3H]-pyrilamine from human recombinant histamine H1 receptor stably expressed in CHO-K1 cell membranes at 1 uM measured after 60 mins by microbeta2 scintillation counting analysis relative to control; details: Cell membrane
[8] = Apparent volume of distribution during terminal phase in Wistar rat at […], po measured after 60 mins by HPLC analysis; type: ADME, organism-based; details: in vivo, dose 2.5 mg/kg, read-out: Vz/F
Rattus norvegicus [9] = test: Antidepressant-like activity in Wistar rat assessed as minimum effective dose causing reduction in immobility time after oral administration with compound 60 mins prior to testing and measured for 5 mins test period by Porsolt-forced swim test; type: functional; details: 1.083 h, time 65 min, read-out: MED
[10] = molecular target: 5-hydroxytryptamine receptor 1D (Homo sapiens) (UniProt P28221); test: Inhibition of 5-HT1D (unknown origin) at 1 uM relative to control
Homo sapiens [11] = species: Homo sapiens; test: Inhibition of sodium channel site2 (unknown origin) at 10 uM relative to control
[12] = Tmax in Wistar rat at […], po measured after 60 mins by HPLC analysis; type: ADME, organism-based; details: in vivo, dose 2.5 mg/kg
[13] = molecular target: Glucocorticoid receptor (Homo sapiens) (UniProt P04150); test: Inhibition of glucocorticoid receptor (unknown origin) at 10 uM relative to control
Chain of Glucocorticoid receptor (Homo sapiens) (P04150 whole entry): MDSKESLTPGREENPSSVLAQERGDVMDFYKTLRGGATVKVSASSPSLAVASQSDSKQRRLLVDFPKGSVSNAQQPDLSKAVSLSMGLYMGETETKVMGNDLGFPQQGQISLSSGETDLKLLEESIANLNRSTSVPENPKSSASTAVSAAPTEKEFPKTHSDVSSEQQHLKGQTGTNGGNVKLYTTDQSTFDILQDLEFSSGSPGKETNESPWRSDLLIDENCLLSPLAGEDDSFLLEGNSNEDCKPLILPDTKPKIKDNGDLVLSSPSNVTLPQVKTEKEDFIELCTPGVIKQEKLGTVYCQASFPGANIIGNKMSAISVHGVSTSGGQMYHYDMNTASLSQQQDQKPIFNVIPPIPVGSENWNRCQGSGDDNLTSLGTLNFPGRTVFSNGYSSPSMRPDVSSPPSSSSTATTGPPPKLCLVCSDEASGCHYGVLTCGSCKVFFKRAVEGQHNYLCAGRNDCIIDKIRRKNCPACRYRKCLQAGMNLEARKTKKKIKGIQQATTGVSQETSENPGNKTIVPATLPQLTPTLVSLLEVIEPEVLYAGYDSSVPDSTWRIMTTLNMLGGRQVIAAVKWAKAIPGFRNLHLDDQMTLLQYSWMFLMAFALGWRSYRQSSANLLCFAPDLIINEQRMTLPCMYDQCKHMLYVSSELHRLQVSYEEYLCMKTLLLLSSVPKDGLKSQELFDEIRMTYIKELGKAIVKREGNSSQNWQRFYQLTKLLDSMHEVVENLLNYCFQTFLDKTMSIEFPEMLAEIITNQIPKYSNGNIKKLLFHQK

[14] = molecular target: Cannabinoid receptor 1 (Homo sapiens) (UniProt P21554); test: Inhibition of cannabinoid receptor 1 (unknown origin) at 10 uM relative to control
hERG (KCNH2) [15] = molecular target: T1, hERG (KCNH2); test: Inhibition of human ERG at 10 uM by patch clamp technique relative to control
[16] = molecular target: Alpha-1A adrenergic receptor (Homo sapiens) (UniProt P35348); test: Inhibition of adrenergic alpha-1A receptor (unknown origin) at 10 uM relative to control
[17] = molecular target: Prostaglandin G/H synthase 2 (Homo sapiens) (UniProt P35354); test: Inhibition of COX2 (unknown origin) at 10 uM relative to control
[18] = Aqueous solubility of compound in simulated gastric fluid at 200 uM; type: physicochemical
[19] = Cmax in Wistar rat brain at […], po measured after 60 mins by HPLC analysis; type: ADME, organism-based; parameters: route oral, dose 2.5 mg/kg, time 60 min
hERG (KCNH2) [20] = molecular target: T1, hERG (KCNH2); test: Inhibition of human ERG at 0.1 uM by patch clamp technique relative to control
[21] = molecular target: 5-hydroxytryptamine receptor 2A (Homo sapiens) (UniProt P28223); test: Displacement of [3H]-ketanserin from human recombinant 5-HT2A receptor stably expressed in CHO-K1 cell membranes at 1 uM measured after 90 mins by microbeta2 scintillation counting analysis relative to control; details: Cell membrane
Chain of 5-hydroxytryptamine receptor 2A (Homo sapiens) (P28223 whole entry): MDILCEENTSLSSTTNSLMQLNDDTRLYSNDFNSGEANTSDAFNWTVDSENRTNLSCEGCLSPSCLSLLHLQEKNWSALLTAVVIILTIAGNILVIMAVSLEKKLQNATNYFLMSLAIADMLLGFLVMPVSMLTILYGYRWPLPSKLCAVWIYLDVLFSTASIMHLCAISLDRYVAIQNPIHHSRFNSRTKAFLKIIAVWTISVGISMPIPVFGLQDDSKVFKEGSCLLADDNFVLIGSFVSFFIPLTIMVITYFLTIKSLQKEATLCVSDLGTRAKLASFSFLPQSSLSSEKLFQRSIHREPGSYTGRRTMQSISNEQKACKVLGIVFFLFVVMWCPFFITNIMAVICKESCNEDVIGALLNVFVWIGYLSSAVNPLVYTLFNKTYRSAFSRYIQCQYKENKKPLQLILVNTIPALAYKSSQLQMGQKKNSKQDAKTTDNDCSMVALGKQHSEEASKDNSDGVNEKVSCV

[22] = molecular target: 5-hydroxytryptamine receptor 7 (Homo sapiens) (UniProt P34969); test: Inhibition of 5-HT7 (unknown origin) at 1 uM relative to control
Rattus norvegicus [23] = test: Antidepressant-like activity in Wistar rat assessed as maximum effective dose causing reduction in immobility time after oral administration with compound 60 mins prior to testing and measured for 5 mins test period by Porsolt-forced swim test; type: functional; details: time 65 min; 1.083 h
Rattus norvegicus [24] = test: In vivo biased agonist activity at 5-HT1A receptor in rat prefrontal brain cortex assessed as increase in ERK1/2 phosphorylation levels at […], po administered as single dose by Alphalisa assay; type: functional, organism-based; details: time 5-60 min, TDE = time-dependent effect
[25] = molecular target: cGMP-inhibited 3',5'-cyclic phosphodiesterase 3A (Homo sapiens) (UniProt Q14432); test: Inhibition of PDE3A (unknown origin) at 10 uM relative to control
Homo sapiens [26] = species: Homo sapiens; test: Inhibition of NMDA glutamate receptor (unknown origin) at 10 uM relative to control
[27] = molecular target: Muscarinic acetylcholine receptor M1 (Homo sapiens) (UniProt P11229); test: Displacement of [3H]-scopolamine from human recombinant muscarinic M1 receptor stably expressed in CHO-K1 cell membranes at 1 uM measured after 120 mins by microbeta2 scintillation counting analysis relative to control; details: Cell membrane
[28] = molecular target: 5-hydroxytryptamine receptor 2A (Homo sapiens) (UniProt P28223); test: Inhibition of 5-HT2A (unknown origin) at 10 uM relative to control
[29] = molecular target: Tyrosine-protein kinase Lck (Homo sapiens) (UniProt P06239); test: Inhibition of LCK (unknown origin) at 10 uM relative to control
Chain of Tyrosine-protein kinase Lck (Homo sapiens) (P06239 2-509 limits assumed): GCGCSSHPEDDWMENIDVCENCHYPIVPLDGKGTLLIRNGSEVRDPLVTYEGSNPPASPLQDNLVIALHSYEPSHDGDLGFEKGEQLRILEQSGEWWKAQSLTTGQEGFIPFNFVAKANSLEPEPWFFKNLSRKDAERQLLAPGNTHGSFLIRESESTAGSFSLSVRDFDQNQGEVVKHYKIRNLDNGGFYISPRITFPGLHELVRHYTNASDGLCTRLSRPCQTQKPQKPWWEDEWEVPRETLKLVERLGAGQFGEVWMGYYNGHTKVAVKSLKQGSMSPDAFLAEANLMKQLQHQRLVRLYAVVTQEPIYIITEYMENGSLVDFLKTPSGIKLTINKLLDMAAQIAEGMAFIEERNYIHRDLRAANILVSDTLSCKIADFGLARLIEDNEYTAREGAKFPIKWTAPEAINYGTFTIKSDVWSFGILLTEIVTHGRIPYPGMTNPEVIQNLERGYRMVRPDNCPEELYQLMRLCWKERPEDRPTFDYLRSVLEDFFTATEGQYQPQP

[30] = molecular target: Prostaglandin G/H synthase 1 (Homo sapiens) (UniProt P23219); test: Inhibition of COX1 (unknown origin) at 10 uM relative to control
[31] = molecular target: Alpha-2A adrenergic receptor (Homo sapiens) (UniProt P08913); test: Inhibition of adrenergic alpha-2A receptor (unknown origin) at 10 uM relative to control
D(2) dopamine receptor = D(2) dopamine receptor (Homo sapiens, UniProt P14416); test: Inhibition of dopamine D2S receptor (unknown origin) at 1 uM relative to control
[32] = Protein binding in human plasma; type: ADME, cell-free; details: read-out: PPB (converted)
[33] = molecular target: Adenosine receptor A2a (Homo sapiens) (UniProt P29274); test: Inhibition of adenosine receptor A2A (unknown origin) at 10 uM relative to control
[34] = Effect on spontaneous locomotor activity in Wistar rat at 0.04 to […], po after 60 mins in presence of 5-HT1A antagonist WAY100635 by open field test; type: organism-based; details: in vivo, 1 h, dose 0.04-2.5 mg/kg
Rattus norvegicus [35] = test: Antidepressant-like activity in Wistar rat assessed as serum concentration causing 50% reduction in immobility time after oral administration of compound and measured after 15 mins by Porsolt-forced swim test; type: functional
[36] = molecular target: Sodium-dependent serotonin transporter (Homo sapiens) (UniProt P31645); test: Inhibition of serotonin transporter (unknown origin) at 10 uM relative to control
[37] = molecular target: Muscarinic acetylcholine receptor M3 (Homo sapiens) (UniProt P20309); test: Inhibition of muscarinic M3 receptor (unknown origin) at 10 uM relative to control
Chain of Muscarinic acetylcholine receptor M3 (Homo sapiens) (P20309 whole entry, looked up): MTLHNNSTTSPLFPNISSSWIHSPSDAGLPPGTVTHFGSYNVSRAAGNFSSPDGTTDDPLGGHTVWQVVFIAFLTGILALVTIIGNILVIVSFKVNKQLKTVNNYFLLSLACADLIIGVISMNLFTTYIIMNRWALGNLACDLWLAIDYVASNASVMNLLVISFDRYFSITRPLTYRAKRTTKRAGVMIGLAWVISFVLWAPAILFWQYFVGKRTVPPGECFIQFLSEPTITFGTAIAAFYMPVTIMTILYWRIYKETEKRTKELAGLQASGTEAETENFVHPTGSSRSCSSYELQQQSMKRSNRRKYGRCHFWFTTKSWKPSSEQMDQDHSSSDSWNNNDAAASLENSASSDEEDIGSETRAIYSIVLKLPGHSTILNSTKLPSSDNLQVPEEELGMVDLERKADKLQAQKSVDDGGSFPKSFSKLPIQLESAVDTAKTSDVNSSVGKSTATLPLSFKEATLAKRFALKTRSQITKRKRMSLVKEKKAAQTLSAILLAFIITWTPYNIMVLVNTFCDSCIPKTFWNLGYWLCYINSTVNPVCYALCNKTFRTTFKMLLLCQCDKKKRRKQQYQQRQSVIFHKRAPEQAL

[38] = molecular target: Muscarinic acetylcholine receptor M2 (Homo sapiens) (UniProt P08172); test: Inhibition of muscarinic M2 receptor (unknown origin) at 10 uM relative to control
Chain of Muscarinic acetylcholine receptor M2 (Homo sapiens) (P08172 whole entry): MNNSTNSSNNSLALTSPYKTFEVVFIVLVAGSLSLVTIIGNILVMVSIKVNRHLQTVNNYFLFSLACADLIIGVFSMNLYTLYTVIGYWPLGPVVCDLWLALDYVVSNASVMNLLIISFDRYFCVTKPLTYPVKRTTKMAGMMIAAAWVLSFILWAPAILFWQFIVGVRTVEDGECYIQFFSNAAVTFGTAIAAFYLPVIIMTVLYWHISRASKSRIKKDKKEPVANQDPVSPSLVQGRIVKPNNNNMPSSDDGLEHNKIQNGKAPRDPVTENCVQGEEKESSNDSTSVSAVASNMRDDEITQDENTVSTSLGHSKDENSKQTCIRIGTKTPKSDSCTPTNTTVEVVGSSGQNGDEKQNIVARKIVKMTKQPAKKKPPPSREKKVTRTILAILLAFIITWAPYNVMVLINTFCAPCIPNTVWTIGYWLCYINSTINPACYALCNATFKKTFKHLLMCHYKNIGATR

[39] = molecular target: 5-hydroxytryptamine receptor 6 (Homo sapiens) (UniProt P50406); test: Inhibition of 5-HT6 (unknown origin) at 1 uM relative to control

For `O=C(c1ccc(F)c(Cl)c1)N1CCC(F)(CNCCOc2ccccn2)CC1`, the inhibition at 10 µM (hERG (KCNH2) [1]) was 16.2%, the Activity (Rattus norvegicus [2]) was “inactive” and the inhibition [3] was -9.1%. It also gave a solubility at 200 µM [4] of 192 µM (≈ 78.8 µg/mL), an inhibition [5] of 29.9% and an inhibition [6] of -0.5%. The Activity [7] was < 50%, the Vd/F at 1 h [8] was 35.9 L/kg and the minimal effective dose (Rattus norvegicus [9]) was 0.16 mg/kg. The inhibition [10] was 25.5%, the inhibition (Homo sapiens [11]) was 48.8% and the Tmax at 1 h [12] was 15 min. For the same compound, the inhibition [13] was -5.1%, the inhibition [14] was 0.4% and the inhibition at 10 µM (hERG (KCNH2) [15]) was 46.5%. The inhibition [16] was 99.7%, the inhibition [17] was -9.2% and the solubility at 200 µM [18] was 200 µM (≈ 82 µg/mL). For the same compound, the Cmax at 1 h [19] was 124 ng/mL, the inhibition at 0.1 µM (hERG (KCNH2) [20]) was 0.1% and the Activity [21] was < 50%. For the same compound, the inhibition [22] was 13.2%, the ED (Rattus norvegicus [23]) was 2.5 mg/kg and the Activity (Rattus norvegicus [24]) was “Tde”. The inhibition [25] was -3.9%, the inhibition (Homo sapiens [26]) was -1.8% and the Activity [27] was < 50%. It also gave an inhibition [28] of 9%, an inhibition [29] of 18.2% and an inhibition [30] of 11.9%. The inhibition [31] was 94.3%, the inhibition (D(2) dopamine receptor) was 9.5% and the fraction unbound [32] was 0.068. For the same compound, the inhibition [33] was 11.8%, the Activity [34] was “Non-Toxic” and the EC (Rattus norvegicus [35]) was 6.76 ng/mL. The inhibition [36] was 0.9%, the inhibition [37] was 9.7% and the inhibition [38] was 6.3%. The inhibition [39] was 12.1%.
